Assay results taken from ChEMBL document CHEMBL2169826, “Pharmacokinetic benefits of 3,4-dimethoxy substitution of a phenyl ring and design of isosteres yielding orally available cathepsin K inhibitors” (J Med Chem, 2012).
≈ marks a conversion by molar mass, not a printed value.

Tests used:
Procathepsin L = Procathepsin L (Homo sapiens, UniProt P07711); experiment: Inhibition of human recombinant cathepsin-L using Z-Phe-Arg-AMC as substrate preincubated for 15 mins measured after 1 hr by QFRET assay
Cathepsin B = Cathepsin B (Homo sapiens, UniProt P07858); experiment: Inhibition of human recombinant cathepsin-B using Z-Arg-Arg-AMC as substrate preincubated for 15 mins measured after 1 hr by QFRET assay
Cathepsin K = molecular target: T1, Cathepsin K (Homo sapiens, UniProt P43235); experiment: Inhibition of human recombinant cathepsin-k using Z-Phe-Arg-AMC as substrate preincubated for 15 mins measured after 1 hr by QFRET assay
T1 sequence (P43235 whole entry): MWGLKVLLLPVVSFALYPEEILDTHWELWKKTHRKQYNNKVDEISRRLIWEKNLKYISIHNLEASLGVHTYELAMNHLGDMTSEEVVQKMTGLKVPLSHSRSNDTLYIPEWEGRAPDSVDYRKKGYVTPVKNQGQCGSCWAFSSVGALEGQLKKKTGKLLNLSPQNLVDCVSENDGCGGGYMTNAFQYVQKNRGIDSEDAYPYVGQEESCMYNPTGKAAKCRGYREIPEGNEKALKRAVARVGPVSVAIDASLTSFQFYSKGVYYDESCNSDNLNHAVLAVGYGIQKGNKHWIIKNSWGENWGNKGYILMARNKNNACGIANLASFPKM

[1] = Metabolic stability of the compound in human liver microsomes assessed as compound turnover after 120 mins
Cathepsin S = Cathepsin S (Homo sapiens, UniProt P25774); experiment: Inhibition of human recombinant cathepsin-S using Z-Val-Val-Arg-AMC as substrate preincubated for 15 mins measured after 1 hr by QFRET assay
[2] = Metabolic stability of the compound in rat liver microsomes assessed as compound turnover after 120 mins
[3] = Percentage unbound in human plasma; format: ADME, cell-free
physchem = conditions: buffer, pH 7.4
[4] = Aqueous solubility of the compound in at pH 7.4; conditions: buffer

Procathepsin L, sequence (P07711 whole entry): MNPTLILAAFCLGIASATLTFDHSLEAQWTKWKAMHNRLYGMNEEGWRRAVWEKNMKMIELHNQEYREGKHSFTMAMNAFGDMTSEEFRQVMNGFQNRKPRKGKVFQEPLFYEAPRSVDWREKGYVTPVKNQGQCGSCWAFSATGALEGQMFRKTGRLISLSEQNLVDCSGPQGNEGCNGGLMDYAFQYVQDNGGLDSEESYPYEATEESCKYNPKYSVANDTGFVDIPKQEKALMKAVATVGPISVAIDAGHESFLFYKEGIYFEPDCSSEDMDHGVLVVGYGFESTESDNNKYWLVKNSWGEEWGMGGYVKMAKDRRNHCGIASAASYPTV
Cathepsin S, sequence (P25774 whole entry): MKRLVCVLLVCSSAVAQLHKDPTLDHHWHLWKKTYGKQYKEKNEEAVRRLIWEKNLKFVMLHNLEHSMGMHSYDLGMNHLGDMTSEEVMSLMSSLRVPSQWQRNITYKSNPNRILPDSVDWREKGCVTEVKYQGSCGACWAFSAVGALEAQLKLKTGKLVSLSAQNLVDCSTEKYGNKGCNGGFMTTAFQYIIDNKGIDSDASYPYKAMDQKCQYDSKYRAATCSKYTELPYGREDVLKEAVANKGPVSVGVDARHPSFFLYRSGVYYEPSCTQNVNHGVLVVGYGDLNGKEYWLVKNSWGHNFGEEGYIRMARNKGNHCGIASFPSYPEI

| Structure (SMILES) | IC50 (Procathepsin L) | IC50 (Cathepsin B) | IC50 (Cathepsin K) | microsomal CLint at 2 h [1] | IC50 (Cathepsin S) | microsomal CLint at 2 h [2] | fraction unbound [3] | logD (physchem) | solubility [4] |
| --- | --- | --- | --- | --- | --- | --- | --- | --- | --- |
| Cc1ccc(N2CCN(C(=O)[C@@H]3CCCC[C@H]3C(=O)NCC#N)CC2)cc1 | > 10000 nM | 572 nM | 11 nM | – | – | – | – | – | – |
| CS(=O)(=O)c1ccc(N2CCN(C(=O)[C@@H]3CCCC[C@H]3C(=O)NCC#N)CC2)cc1 | > 10000 nM | 1180 nM | 11 nM | < 2 µL/min/mg | 1290 nM | < 5.3 µL/min/mg | > 0.5 | 0.67 | 280 µM (≈ 121 µg/mL) |
| C[C@@H]1CN(c2ccccc2)CCN1C(=O)[C@@H]1CCCC[C@H]1C(=O)NCC#N | > 10000 nM | 462 nM | 6 nM | 16 µL/min/mg | 1220 nM | > 347 µL/min/mg | – | – | – |
| C[C@@H]1CN(c2ccc(S(C)(=O)=O)cc2)CCN1C(=O)[C@@H]1CCCC[C@H]1C(=O)NC1(C#N)CC1 | > 10000 nM | 977 nM | 12 nM | 9.4 µL/min/mg | 549 nM | < 2 µL/min/mg | – | – | – |
| COc1ccc(N2CCN(C(=O)[C@@H]3CCCC[C@H]3C(=O)NCC#N)CC2)cc1 | > 10000 nM | 399 nM | 6 nM | 7.1 µL/min/mg | 1050 nM | 77 µL/min/mg | > 0.5 | 1.6 | 390 µM (≈ 150 µg/mL) |
| N#CCNC(=O)[C@@H]1CCCC[C@H]1C(=O)N1CCN(c2ccc(C#N)cc2)CC1 | > 10000 nM | – | 25 nM | – | 2600 nM | – | 0.53 | 1.8 | – |
| C[C@@H]1CN(c2ccc3c(c2)OCO3)CCN1C(=O)[C@@H]1CCCC[C@H]1C(=O)NC1(C#N)CC1 | > 10000 nM | 645 nM | 9 nM | 8.8 µL/min/mg | 1150 nM | 83 µL/min/mg | – | – | – |
| C[C@@H]1CN(c2ccc(S(C)(=O)=O)cc2)C[C@H](C)N1C(=O)[C@@H]1CCCC[C@H]1C(=O)NC1(C#N)CC1 | > 10000 nM | 24900 nM | 211 nM | < 2 µL/min/mg | > 11800 nM | < 2 µL/min/mg | – | – | – |
| COc1cccc(N2CCN(C(=O)[C@@H]3CCCC[C@H]3C(=O)NCC#N)CC2)c1 | > 10000 nM | – | 8 nM | 5.6 µL/min/mg | – | 149 µL/min/mg | – | – | – |
| CC1(C)CN(c2ccc(S(C)(=O)=O)cc2)CCN1C(=O)[C@@H]1CCCC[C@H]1C(=O)NC1(C#N)CC1 | > 10000 nM | 3510 nM | 45 nM | < 2 µL/min/mg | 3750 nM | 4.9 µL/min/mg | – | – | – |
| N#CCNC(=O)[C@@H]1CCCC[C@H]1C(=O)N1CCN(c2ccccc2)CC1 | > 10000 nM | – | – | – | – | – | > 0.5 | – | – |
| C[C@H]1CN(c2ccc(S(C)(=O)=O)cc2)CCN1C(=O)[C@@H]1CCCC[C@H]1C(=O)NC1(C#N)CC1 | > 10000 nM | 3430 nM | 59 nM | < 2 µL/min/mg | 1510 nM | < 2 µL/min/mg | – | – | – |
| N#CCNC(=O)[C@@H]1CCCC[C@H]1C(=O)N1CCN(c2ccc(F)cc2)CC1 | > 10000 nM | 315 nM | 23 nM | < 2.9 µL/min/mg | 1680 nM | 31 µL/min/mg | 0.39 | 1.9 | > 3700 µM |
| CC1CN(c2ccc(S(C)(=O)=O)cc2)C(C)CN1C(=O)[C@@H]1CCCC[C@H]1C(=O)NC1(C#N)CC1 (stereo not given in full) | > 10000 nM | 40000 nM | 312 nM | < 2 µL/min/mg | > 7430 nM | 4.3 µL/min/mg | – | – | – |
| C[C@@H]1CN(c2ccccc2)CCN1C(=O)[C@@H]1CCCC[C@H]1C(=O)NC1(C#N)CC1 | > 10000 nM | 649 nM | 11 nM | 20 µL/min/mg | 1300 nM | > 347 µL/min/mg | – | 2.4 | – |
